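Growth conditions: 96-well plates. Treatment: test compound, 48 hours, 5 concentrations. Analysis: linear interpolation between bracketing concentrations; unreached endpoints set to highest concentration. At the GI50, growth is halved. TGI is the concentration that stops growth completely.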
What was measured:
Test in all cases: growth of human tumour cells (NCI), 48 h
A498 renal = tested on: A498 renal
CAKI-1 renal = tested on: CAKI-1 renal
HL-60(TB) leukemia = tested on: HL-60(TB) leukemia
MOLT-4 leukemia = tested on: MOLT-4 leukemia
RXF 393 renal = tested on: RXF 393 renal
SF-268 CNS = tested on: SF-268 CNS
SK-MEL-28 melanoma = tested on: SK-MEL-28 melanoma
SK-OV-3 ovarian = tested on: SK-OV-3 ovarian
U251 CNS = tested on: U251 CNS
HS 578T breast = tested on: HS 578T breast

COC(CN1C=C(Sc2ccccc2)CC1)OC
TGI (A498 renal): > 100 µM
TGI (CAKI-1 renal): > 100 µM
TGI (HL-60(TB) leukemia): 34 µM
TGI (MOLT-4 leukemia): 80.3 µM
TGI (RXF 393 renal): 66.6 µM
TGI (SF-268 CNS): > 100 µM
TGI (SK-MEL-28 melanoma): > 100 µM
TGI (SK-OV-3 ovarian): 93 µM

C/C=C(\C)c1cc(O)c(C)c2c1Oc1cc(O)c(Cl)c(C)c1C(=O)O2
TGI (CAKI-1 renal): > 100 µM
TGI (HL-60(TB) leukemia): 67.3 µM
TGI (RXF 393 renal): 34.1 µM
TGI (SF-268 CNS): 66 µM
TGI (SK-MEL-28 melanoma): 72.2 µM
TGI (U251 CNS): 39.6 µM

c1ccc(P(=Nc2ccccc2N=P(c2ccccc2)(c2ccccc2)c2ccccc2)(c2ccccc2)c2ccccc2)cc1
TGI (A498 renal): 5.56 µM
TGI (CAKI-1 renal): 3.72 µM
TGI (HL-60(TB) leukemia): 3.43 µM
TGI (RXF 393 renal): 9 µM
TGI (SF-268 CNS): > 100 µM
TGI (SK-MEL-28 melanoma): > 100 µM
TGI (SK-OV-3 ovarian): 3.52 µM
TGI (U251 CNS): 11.6 µM

COc1ccc(C(Cl)=C(c2ccc(OCCN(C)C)cc2)c2ccc(OCCN(C)C)cc2)cc1
TGI (CAKI-1 renal): 16.3 µM
TGI (HL-60(TB) leukemia): 3.65 µM
TGI (MOLT-4 leukemia): 6.04 µM
TGI (RXF 393 renal): 2.65 µM
TGI (SF-268 CNS): 4.71 µM
TGI (SK-MEL-28 melanoma): 3.11 µM
TGI (SK-OV-3 ovarian): 7.69 µM
TGI (U251 CNS): 3.25 µM

CN(C)c1ccc(/C=C2\C=Cc3ccccc32)cc1
TGI (A498 renal): > 100 µM
TGI (CAKI-1 renal): > 100 µM
TGI (HL-60(TB) leukemia): > 100 µM
TGI (MOLT-4 leukemia): > 100 µM
TGI (RXF 393 renal): 84.4 µM
TGI (SF-268 CNS): > 100 µM
TGI (SK-MEL-28 melanoma): > 100 µM
TGI (SK-OV-3 ovarian): > 100 µM
TGI (U251 CNS): > 100 µM

COC(=O)c1nc(-c2ccccc2)oc1S(=O)(=O)n1nc(C)cc1N
GI50 (A498 renal): 18.7 µM
TGI (A498 renal): 70.2 µM
GI50 (HL-60(TB) leukemia): 3.02 µM
TGI (HL-60(TB) leukemia): 12.5 µM
GI50 (HS 578T breast): 25.8 µM
TGI (HS 578T breast): 90.2 µM
GI50 (MOLT-4 leukemia): 3.08 µM
TGI (MOLT-4 leukemia): 11.4 µM
GI50 (RXF 393 renal): 11.9 µM
TGI (RXF 393 renal): 24.7 µM
GI50 (SF-268 CNS): 18.9 µM
TGI (SF-268 CNS): 41.3 µM
GI50 (SK-MEL-28 melanoma): 14.7 µM
TGI (SK-MEL-28 melanoma): 29.9 µM
GI50 (SK-OV-3 ovarian): 45.5 µM
TGI (SK-OV-3 ovarian): > 100 µM
GI50 (U251 CNS): 16.5 µM
TGI (U251 CNS): 30.8 µM

O=C(Oc1cccnc1)c1ccsc1Nc1ccnc(C(F)(F)F)c1
GI50 (A498 renal): 31.1 µM
TGI (A498 renal): 76.2 µM
GI50 (CAKI-1 renal): 3.82 µM
TGI (CAKI-1 renal): > 100 µM
GI50 (MOLT-4 leukemia): 4.39 µM
TGI (MOLT-4 leukemia): 35 µM
GI50 (RXF 393 renal): 6.26 µM
TGI (RXF 393 renal): 34.8 µM
GI50 (SF-268 CNS): 4.54 µM
TGI (SF-268 CNS): > 100 µM
GI50 (SK-MEL-28 melanoma): 6.28 µM
TGI (SK-MEL-28 melanoma): 39.9 µM
GI50 (SK-OV-3 ovarian): 4 µM
TGI (SK-OV-3 ovarian): 29.5 µM
GI50 (U251 CNS): 3.91 µM
TGI (U251 CNS): 18.7 µM

Cc1ccc(S(=O)OC2C3CC4CC(C3)CC2C4)cc1 (configuration not stated)
TGI (A498 renal): > 100 µM
TGI (CAKI-1 renal): > 100 µM
TGI (HL-60(TB) leukemia): > 100 µM
TGI (MOLT-4 leukemia): > 100 µM
TGI (RXF 393 renal): > 100 µM
TGI (SF-268 CNS): > 100 µM
TGI (SK-MEL-28 melanoma): > 100 µM
TGI (SK-OV-3 ovarian): > 100 µM
TGI (U251 CNS): > 100 µM

Cc1cc2c(c(C(=O)O)c1C)-c1cccc(F)c1C2=O
TGI (CAKI-1 renal): > 100 µM
TGI (MOLT-4 leukemia): > 100 µM
TGI (RXF 393 renal): > 100 µM
TGI (SF-268 CNS): > 100 µM
TGI (SK-MEL-28 melanoma): > 100 µM
TGI (SK-OV-3 ovarian): > 100 µM
TGI (U251 CNS): > 100 µM

Cn1c2ccccc2n2c(=O)c3c(c(C#N)c12)CCCC3
TGI (A498 renal): > 100 µM
TGI (CAKI-1 renal): > 100 µM
TGI (HL-60(TB) leukemia): > 100 µM
TGI (MOLT-4 leukemia): > 100 µM
TGI (RXF 393 renal): > 100 µM
TGI (SF-268 CNS): > 100 µM
TGI (SK-MEL-28 melanoma): > 100 µM
TGI (SK-OV-3 ovarian): > 100 µM
TGI (U251 CNS): > 100 µM

C[C@@H]1O[C@@H](OC[C@H]2O[C@@H](OCCc3ccc(O)c(O)c3)[C@H](O)[C@@H](O)[C@@H]2OC(=O)/C=C/c2ccc(O)c(O)c2)[C@H](O)[C@H](O)[C@H]1O
GI50 (CAKI-1 renal): > 100 µM
TGI (CAKI-1 renal): > 100 µM
GI50 (HL-60(TB) leukemia): > 100 µM
TGI (HL-60(TB) leukemia): > 100 µM
GI50 (HS 578T breast): > 100 µM
TGI (HS 578T breast): > 100 µM
GI50 (MOLT-4 leukemia): > 100 µM
TGI (MOLT-4 leukemia): > 100 µM
GI50 (RXF 393 renal): > 100 µM
TGI (RXF 393 renal): > 100 µM
GI50 (SF-268 CNS): > 100 µM
TGI (SF-268 CNS): > 100 µM
GI50 (SK-MEL-28 melanoma): > 100 µM
TGI (SK-MEL-28 melanoma): > 100 µM
GI50 (SK-OV-3 ovarian): > 100 µM
TGI (SK-OV-3 ovarian): > 100 µM
GI50 (U251 CNS): > 100 µM
TGI (U251 CNS): > 100 µM

COc1ccc2c(c1OC)C(=O)OC2C1c2c(c([N+](=O)[O-])c3c(c2OC)OCO3)CCN1C (configuration not stated)
GI50 (A498 renal): > 100 µM
TGI (A498 renal): > 100 µM
GI50 (CAKI-1 renal): > 100 µM
TGI (CAKI-1 renal): > 100 µM
GI50 (HS 578T breast): > 100 µM
TGI (HS 578T breast): > 100 µM
GI50 (RXF 393 renal): > 100 µM
TGI (RXF 393 renal): > 100 µM
GI50 (SF-268 CNS): > 100 µM
TGI (SF-268 CNS): > 100 µM
GI50 (SK-MEL-28 melanoma): > 100 µM
TGI (SK-MEL-28 melanoma): > 100 µM
GI50 (SK-OV-3 ovarian): > 100 µM
TGI (SK-OV-3 ovarian): > 100 µM
GI50 (U251 CNS): > 100 µM
TGI (U251 CNS): > 100 µM

Cc1nc2ccccc2c(/C=C/c2ccc(Br)cc2)c1C(=O)/C=C/c1ccccc1
GI50 (A498 renal): 1.75 µM
TGI (A498 renal): 3.28 µM
GI50 (CAKI-1 renal): 1.26 µM
TGI (CAKI-1 renal): 2.62 µM
GI50 (HL-60(TB) leukemia): 2.17 µM
TGI (HL-60(TB) leukemia): 5.27 µM
GI50 (MOLT-4 leukemia): 0.696 µM
TGI (MOLT-4 leukemia): 5.06 µM
GI50 (RXF 393 renal): 1.64 µM
TGI (RXF 393 renal): 3.07 µM
GI50 (SF-268 CNS): 2.14 µM
TGI (SF-268 CNS): 6.38 µM
GI50 (SK-MEL-28 melanoma): 1.89 µM
TGI (SK-MEL-28 melanoma): 3.4 µM
GI50 (SK-OV-3 ovarian): 1.88 µM
TGI (SK-OV-3 ovarian): 4.15 µM
GI50 (U251 CNS): 1.57 µM
TGI (U251 CNS): 2.97 µM

CCCCCCCCCCCCCP(=O)(O)NCC(N)=O
TGI (A498 renal): > 100 µM
TGI (HL-60(TB) leukemia): 67.3 µM
TGI (RXF 393 renal): > 100 µM
TGI (SF-268 CNS): > 100 µM
TGI (SK-MEL-28 melanoma): > 100 µM
TGI (SK-OV-3 ovarian): > 100 µM
TGI (U251 CNS): > 100 µM

Fc1cccc(C2SCc3nc4ccccc4n32)c1F (configuration not stated)
TGI (A498 renal): > 100 µM
TGI (CAKI-1 renal): > 100 µM
TGI (HL-60(TB) leukemia): 46.9 µM
TGI (MOLT-4 leukemia): 68.5 µM
TGI (RXF 393 renal): > 100 µM
TGI (SF-268 CNS): > 100 µM
TGI (SK-OV-3 ovarian): > 100 µM
TGI (U251 CNS): > 100 µM

O=P1(Oc2ccccc2)C(c2ccccc2)C(c2ccccc2)=NN1c1ccccc1 (configuration not stated)
TGI (A498 renal): 84.6 µM
TGI (CAKI-1 renal): 65 µM
TGI (HL-60(TB) leukemia): 47 µM
TGI (MOLT-4 leukemia): 57 µM
TGI (RXF 393 renal): 40.7 µM
TGI (SF-268 CNS): 93.6 µM
TGI (SK-MEL-28 melanoma): 64.2 µM
TGI (SK-OV-3 ovarian): 54.4 µM
TGI (U251 CNS): 42.2 µM

CC(C)c1c2[nH]c3ccccc3c2c(C(C)C)c2[nH]c3ccccc3c12
TGI (A498 renal): > 100 µM
TGI (CAKI-1 renal): > 100 µM
TGI (HL-60(TB) leukemia): > 62.5 µM
TGI (MOLT-4 leukemia): > 100 µM
TGI (RXF 393 renal): > 100 µM
TGI (SF-268 CNS): > 100 µM
TGI (SK-MEL-28 melanoma): > 100 µM
TGI (SK-OV-3 ovarian): > 100 µM
TGI (U251 CNS): > 100 µM

CCO/C=C1\N=C(c2ccccc2Br)OC1=O
TGI (A498 renal): > 100 µM
TGI (CAKI-1 renal): > 100 µM
TGI (HL-60(TB) leukemia): > 100 µM
TGI (MOLT-4 leukemia): > 100 µM
TGI (RXF 393 renal): > 100 µM
TGI (SF-268 CNS): > 100 µM
TGI (SK-MEL-28 melanoma): > 100 µM
TGI (SK-OV-3 ovarian): > 100 µM

COc1ccc(/C=N/NC(=O)Cn2c(-c3ccc(S(C)(=O)=O)cc3)nc3cc(Cl)ccc32)cc1
GI50 (A498 renal): 0.79 µM
TGI (A498 renal): 3.65 µM
GI50 (CAKI-1 renal): 4.14 µM
TGI (CAKI-1 renal): > 50 µM
GI50 (HL-60(TB) leukemia): 0.446 µM
TGI (HL-60(TB) leukemia): 7.3 µM
GI50 (HS 578T breast): 1.77 µM
TGI (HS 578T breast): > 50 µM
GI50 (MOLT-4 leukemia): 2.11 µM
TGI (MOLT-4 leukemia): > 50 µM
GI50 (SF-268 CNS): 2.76 µM
TGI (SF-268 CNS): > 50 µM
GI50 (SK-MEL-28 melanoma): 4.48 µM
TGI (SK-MEL-28 melanoma): > 50 µM
GI50 (SK-OV-3 ovarian): 1.72 µM
TGI (SK-OV-3 ovarian): > 50 µM
GI50 (U251 CNS): 1.16 µM
TGI (U251 CNS): > 50 µM

CN(C)CCC(/C=C/c1ccccc1)=N\Nc1ccc(Cl)cc1Cl
TGI (A498 renal): 30.5 µM
TGI (HL-60(TB) leukemia): 16.7 µM
TGI (MOLT-4 leukemia): 25.9 µM
TGI (RXF 393 renal): 21 µM
TGI (SF-268 CNS): 28.2 µM
TGI (SK-MEL-28 melanoma): 27.3 µM
TGI (SK-OV-3 ovarian): 22.8 µM
TGI (U251 CNS): 24.7 µM

Reference: PubChem BioAssay (NCI)
